Results as given in ChEMBL document CHEMBL1914313, “Monosubstituted γ-lactam and conformationally constrained 1,3-diaminopropan-2-ol transition-state isostere inhibitors of β-secretase (BACE)” (Bioorg Med Chem Lett, 2011).

Key:
Beta-secretase 1 [1] = target: T1, Beta-secretase 1 (Homo sapiens, UniProt P56817); test: Inhibition of BACE1 by HPLC method
Beta-secretase 1 [2] = target: T1, Beta-secretase 1; test: Inhibition of BACE1 in human HEK293 cells expressing swedish mutant APP; format: cell-based

T1 sequence (P56817 whole entry): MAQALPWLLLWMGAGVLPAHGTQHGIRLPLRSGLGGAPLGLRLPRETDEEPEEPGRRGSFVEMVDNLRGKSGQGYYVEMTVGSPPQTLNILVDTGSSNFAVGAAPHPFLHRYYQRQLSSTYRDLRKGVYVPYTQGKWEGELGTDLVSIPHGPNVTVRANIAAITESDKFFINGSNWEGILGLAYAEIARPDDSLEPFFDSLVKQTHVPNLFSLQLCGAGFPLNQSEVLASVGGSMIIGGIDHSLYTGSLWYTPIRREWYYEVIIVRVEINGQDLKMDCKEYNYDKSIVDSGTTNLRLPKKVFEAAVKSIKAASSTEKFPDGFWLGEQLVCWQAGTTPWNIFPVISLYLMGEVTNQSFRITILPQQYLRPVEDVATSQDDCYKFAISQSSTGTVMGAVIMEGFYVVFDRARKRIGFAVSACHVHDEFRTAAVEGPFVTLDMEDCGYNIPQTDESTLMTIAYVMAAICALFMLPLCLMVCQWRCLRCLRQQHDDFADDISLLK

Structure (SMILES)	IC50 (Beta-secretase 1 [1]) [nM]	IC50 (Beta-secretase 1 [2]) [nM]
CCCC[C@H]1CCN([C@@H](CCc2ccccc2)C(=O)N[C@@H](Cc2cc(F)cc(F)c2)[C@H](O)[C@H]2C[C@@H](Oc3ccccn3)CN2)C1=O	–	360
CCCC[C@H]1CCN([C@@H](CCc2ccccc2)C(=O)N[C@@H](Cc2cc(F)cc(F)c2)[C@H](O)CNCc2cccc(OC)c2)C1=O	38	350
CCC[C@@H](O)[C@H]1CCN([C@@H](CCc2ccccc2)C(=O)N[C@@H](Cc2cc(F)cc(F)c2)[C@H](O)[C@H]2C[C@H](O)CN2)C1=O	16	220
CCC(C)[C@@]1(NC(C)=O)CCN([C@@H](CCc2ccccc2)C(=O)N[C@@H](Cc2cc(F)cc(F)c2)[C@H](O)CNCc2cccc(OC)c2)C1=O (some centres undefined)	6.1	–
CCC(C)[C@@]1(NC(C)=O)CCN([C@@H](C)C(=O)N[C@@H](Cc2cc(F)cc(F)c2)[C@H](O)[C@H]2C[C@H](O)CN2)C1=O (some centres undefined)	31	> 660
CCCC[C@H]1CCN([C@@H](C)C(=O)N[C@@H](Cc2cc(F)cc(F)c2)[C@H](O)[C@H]2C[C@H](O)CN2)C1=O	96	1400
COc1cccc(CNC[C@@H](O)[C@H](Cc2cc(F)cc(F)c2)NC(=O)[C@H](CCc2ccccc2)N2CC[C@H](CC(C)C)C2=O)c1	20	240
CCCC[C@H]1CCN([C@@H](CCc2ccccc2)C(=O)N[C@@H](Cc2cc(F)cc(F)c2)[C@H](O)[C@H]2C[C@@H](O)CN2)C1=O	25	650
COc1cccc(CNC[C@@H](O)[C@H](Cc2cc(F)cc(F)c2)NC(=O)[C@H](C)N2CC[C@H](C(C)C)C2=O)c1	170	240
CCC[C@@H](O)[C@H]1CCN([C@@H](C)C(=O)N[C@@H](Cc2cc(F)cc(F)c2)[C@H](O)[C@H]2C[C@H](O)CN2)C1=O	40	870
CCCO[C@H]1CN[C@@H]([C@@H](O)[C@H](Cc2cc(F)cc(F)c2)NC(=O)[C@H](C)N2CC[C@H](C(C)C)C2=O)C1	160	390
CCC(C)[C@@]1(NC(C)=O)CCN([C@@H](CCc2ccccc2)C(=O)N[C@@H](Cc2cc(F)cc(F)c2)[C@H](O)[C@H]2C[C@@H](N)CN2)C1=O (some centres undefined)	34	270
COC[C@H]1CCN([C@@H](C)C(=O)N[C@@H](Cc2cc(F)cc(F)c2)[C@H](O)CNCc2cccc(OC)c2)C1=O	480	400
CC(C)C[C@H]1CCN([C@@H](CCc2ccccc2)C(=O)N[C@@H](Cc2cc(F)cc(F)c2)[C@H](O)[C@H]2C[C@@H](Oc3ccccn3)CN2)C1=O	–	510
CC(C)C[C@H]1CCN([C@@H](C)C(=O)N[C@@H](Cc2cc(F)cc(F)c2)[C@H](O)[C@H]2C[C@@H](Oc3ccccn3)CN2)C1=O	–	330

Other lines, results leading:

IC50 (Beta-secretase 1 [1]) [nM]	IC50 (Beta-secretase 1 [2]) [nM]	Structure (SMILES)
54	110	CCC(C)[C@@]1(NC(C)=O)CCN([C@@H](CCc2ccccc2)C(=O)N[C@@H](Cc2cc(F)cc(F)c2)[C@H](O)[C@H]2Cc3ccccc3CN2)C1=O (some centres undefined)
4.2	20	CCC(C)[C@@]1(NC(C)=O)CCN([C@@H](CCc2ccccc2)C(=O)N[C@@H](Cc2cc(F)cc(F)c2)[C@H](O)[C@H]2Cc3cccc(OC)c3CN2)C1=O (some centres undefined)
75	220	COc1cccc(CNC[C@@H](O)[C@H](Cc2cc(F)cc(F)c2)NC(=O)[C@H](CCc2ccccc2)N2CC[C@H](C(C)C)C2=O)c1
2.6	2.1	CCC(C)[C@@]1(NC(C)=O)CCN([C@@H](CCc2ccccc2)C(=O)N[C@@H](Cc2cc(F)cc(F)c2)[C@H](O)[C@H]2C[C@@H](Oc3ccccn3)CN2)C1=O (some centres undefined)
70	55	CCCO[C@H]1CN[C@@H]([C@@H](O)[C@H](Cc2cc(F)cc(F)c2)NC(=O)[C@H](C)N2CC[C@H]([C@H](O)CCC)C2=O)C1
8.6	9.5	CC(=O)N[C@]1(CC(C)C)CCN([C@@H](CCc2ccccc2)C(=O)N[C@@H](Cc2cc(F)cc(F)c2)[C@H](O)[C@H]2Cc3ccccc3CN2)C1=O
6.5	29	CCC(C)[C@@]1(NC(C)=O)CCN([C@@H](CCc2ccccc2)C(=O)N[C@@H](Cc2cc(F)cc(F)c2)[C@H](O)[C@H]2C[C@@H](O)CN2)C1=O (some centres undefined)
2.6	1.4	CCC(C)[C@@]1(NC(C)=O)CCN([C@@H](CCc2ccccc2)C(=O)N[C@@H](Cc2cc(F)cc(F)c2)[C@H](O)[C@H]2C[C@@H](Oc3ccccc3)CN2)C1=O (some centres undefined)
4.7	48	CCCO[C@H]1CN[C@@H]([C@@H](O)[C@H](Cc2cc(F)cc(F)c2)NC(=O)[C@H](CCc2ccccc2)N2CC[C@H]([C@H](O)CCC)C2=O)C1
46	27	COc1cccc(CNC[C@@H](O)[C@H](Cc2cc(F)cc(F)c2)NC(=O)[C@H](C)N2CC[C@@](CC3CC3)(NC(C)=O)C2=O)c1
89	67	COc1cccc(CNC[C@@H](O)[C@H](Cc2cc(F)cc(F)c2)NC(=O)[C@H](C)N2CC[C@H](CC(C)C)C2=O)c1
1.4	2	CCC(C)[C@@]1(NC(C)=O)CCN([C@@H](CCc2ccccc2)C(=O)N[C@@H](Cc2cc(F)cc(F)c2)[C@H](O)[C@H]2C[C@@H](OCc3cccnc3)CN2)C1=O (some centres undefined)
68	27	CCC[C@@H](O)[C@H]1CCN([C@@H](C)C(=O)N[C@@H](Cc2cc(F)cc(F)c2)[C@H](O)CNCc2cccc(OC)c2)C1=O
11	10	COc1cccc(CNC[C@@H](O)[C@H](Cc2cc(F)cc(F)c2)NC(=O)[C@H](CCc2ccccc2)N2CC[C@@](CC3CC3)(NC(C)=O)C2=O)c1
–	12	CCC(C)[C@@]1(NC(C)=O)CCN([C@@H](CCc2ccccc2)C(=O)N[C@@H](Cc2cc(F)cc(F)c2)[C@H](O)[C@H]2C[C@@H](OCc3ccccc3)CN2)C1=O (some centres undefined)
50	190	CCC(C)[C@@]1(NC(C)=O)CCN([C@@H](CCc2ccccc2)C(=O)N[C@@H](Cc2cc(F)cc(F)c2)[C@H](O)[C@H]2C[C@H](N)CN2)C1=O (some centres undefined)
32	210	COC[C@H]1CCN([C@@H](CCc2ccccc2)C(=O)N[C@@H](Cc2cc(F)cc(F)c2)[C@H](O)CNCc2cccc(OC)c2)C1=O
5.2	90	CCC[C@@H](O)[C@H]1CCN([C@@H](CCc2ccccc2)C(=O)N[C@@H](Cc2cc(F)cc(F)c2)[C@H](O)CNCc2cccc(OC)c2)C1=O
5.7	69	CCCO[C@H]1CN[C@@H]([C@@H](O)[C@H](Cc2cc(F)cc(F)c2)NC(=O)[C@H](CCc2ccccc2)N2CC[C@H](CC(C)C)C2=O)C1
3	4.2	CCC(C)[C@@]1(NC(C)=O)CCN([C@@H](CCc2ccccc2)C(=O)N[C@@H](Cc2cc(F)cc(F)c2)[C@H](O)[C@H]2C[C@@H](OCc3cccc(C#N)c3)CN2)C1=O (some centres undefined)
2.7	71	CCC(C)[C@@]1(NC(C)=O)CCN([C@@H](CCc2ccccc2)C(=O)N[C@@H](Cc2cc(F)cc(F)c2)[C@H](O)[C@H]2C[C@@H](OCc3cccc(C(F)(F)F)c3)CN2)C1=O (some centres undefined)
10	8.9	CCC(C)[C@@]1(NC(C)=O)CCN([C@@H](CCc2ccccc2)C(=O)N[C@@H](Cc2cc(F)cc(F)c2)[C@H](O)[C@H]2C[C@@H](OCc3ccc(F)cc3)CN2)C1=O (some centres undefined)
